We go through 81 compounds from the Kinase Knowledgebase extract (Sharma et al. 2016).

The target in the assay is MAPK14;MAPK11;MAPK12 (human) (UniProt Q16539). Description: Inhibition of p38 Kinase Activity.

The structures appear in SMILES notation.

The IC50 is the midpoint of a concentration-inhibition curve. Read a low IC50 as greater potency in that assay.

As for `CCNC(=O)c1ccc(C)c(Nc2nc(N[C@H]3CCNC3)nc(N(C)CC(C)C)n2)c1`, the 50% inhibitory concentration (IC50) was < 1000 nM.
Then `CC(C)C(=O)N(C)CCCN(C)c1nc(NCC(C)c2ccccc2)nc(Nc2ccc3ncsc3c2)n1` (stereo unspecified), with < 10000 nM; and `CONC(=O)c1ccc(C)c(Nc2nc(N(C)CC(C)(C)C)nc(N3CCN(C)CC3)n2)c1`, with < 1000 nM.
To `Cc1ccc(C(N)=O)cc1Nc1nc(N[C@H]2CCNC2)nc(N(C)CC2CCCC2)n1` belongs < 1000 nM; to `CONC(=O)c1ccc(F)c(Sc2nc(N[C@@H]3CCNC3)nc(N(C)CC(C)(C)C)n2)c1`, < 30000 nM.
Consider `Cc1ccc(C(N)=O)cc1Nc1nc(N[C@H]2CCN(Cc3ccc(Cl)c(Cl)c3)C2)nc(N(C)CC(C)C)n1`, for which the half-inhibitory concentration (IC50) was < 1000 nM.
Regarding `CC(CNc1nc(Nc2ccc3ncsc3c2)nc(N(C)C)n1)c1ccccc1` (stereo unspecified), the IC50 was < 10000 nM.
With `Cc1ccc(C(=O)Nc2cccc(N(C)C)c2)cc1Nc1nc(N[C@H]2CCNC2)nc(N(C)CC(C)(C)C)n1`, the 50% inhibitory concentration (IC50) was < 1000 nM.
Then `Cc1ccc(C(N)=O)cc1Nc1nc(N[C@H]2CCN(C3CCCC3)C2)nc(N(C)CC(C)C)n1`, with < 1000 nM; and `CONC(=O)c1ccc(C)c(Nc2nc(N(C)CC(C)(C)C)nc(N3CCCCC3)n2)c1`, with < 1000 nM; and `CC(CNc1nc(Nc2ccc3ncsc3c2)nc(N2CCN(C(=O)c3ccc(-c4ccccc4)cc3)CC2)n1)c1ccccc1` (stereo unspecified), with < 10000 nM.
Then `COCCNC(=O)c1ccc(C)c(Nc2nc(N[C@H]3CCNC3)nc(N(C)CC(C)C)n2)c1`, with < 1000 nM; and `CCN1CCC[C@@H](Nc2nc(Nc3cc(C(N)=O)ccc3C)nc(N(C)CC(C)(C)C)n2)C1`, with < 1000 nM; and `Nc1nc(NCCc2ccccc2)nc(Nc2ccc(S(=O)(=O)N(C=O)c3ncccn3)cc2)n1`, with < 10000 nM.
To `Cc1ccc(CN2CC[C@H](Nc3nc(Nc4cc(C(N)=O)ccc4C)nc(N(C)CC(C)C)n3)C2)cc1` belongs < 1000 nM.
Consider `COC(=O)CC(CNc1nc(Cl)nc(Nc2ccc3ncsc3c2)n1)c1ccc(Cl)cc1` (stereo unspecified), for which the IC50 was < 10000 nM.
To `Cc1c(Cl)cc(C(N)=O)cc1Nc1nc(N[C@H]2CCNC2)nc(N(C)CC(C)C)n1` belongs < 1000 nM; to `CNc1nc(NCc2ccccc2OC)nc(Nc2ccc3ncsc3c2)n1`, < 10000 nM; to `Cc1ccc(C(N)=O)cc1Nc1nc(NC[C@H]2CCCN2)nc(N(C)CC(C)C)n1`, < 1000 nM.
To `CONC(=O)c1ccc(C)c(Nc2nc(NCCCn3ccnc3)nc(N(C)CC(C)(C)C)n2)c1` belongs < 1000 nM; to `CC(C)C(=O)N1CC2CC1CN2c1nc(NCC(C)c2ccccc2)nc(Nc2ccc3ncsc3c2)n1` (stereo unspecified), < 10000 nM; to `CCONC(=O)c1ccc(C)c(Nc2cc(N3CCCN(C)CC3)nc(N(C)CC(C)(C)C)n2)c1`, < 1000 nM.
Then `CN(CC1CCC2CC1C2(C)C)c1nc(Nc2ccc3ncsc3c2)nc(N2CCN(C(=O)OC(C)(C)C)CC2)n1` (stereo unspecified), with < 10000 nM.
Consider `Cc1ccc(C(N)=O)cc1Nc1nc(NC[C@@H]2CC[C@H]3C[C@H]2C3(C)C)nc(NC2CCNCC2)n1`, for which the IC50 was < 1000 nM.
To `Cc1ccc(C(N)=O)cc1Nc1nc(NCC2(C)CCCC2)nc(N[C@H]2CCNC2)n1` belongs < 1000 nM; to `Cc1ccc2ncn(-c3nc(NCCOC(C)C)cc(N(C)C)n3)c2c1`, < 10000 nM.
To `Cc1ccc(C(N)=O)cc1Nc1nc(N[C@H]2CCN(Cc3cccc4c3OCO4)C2)nc(N(C)CC(C)C)n1` belongs < 1000 nM; to `Cc1ccc(C(N)=O)cc1Nc1nc(NCC2(c3ccccc3)CC2)nc(N[C@H]2CCNC2)n1`, < 1000 nM; to `CONC(=O)c1ccc(C)c(Nc2nc(N(C)CC(C)(C)C)nc(N3CCCNCC3)n2)c1`, < 1000 nM.
For the compound `Cc1ccc(C(N)=O)cc1Nc1nc(N[C@H]2CCN(C(C#N)c3ccccc3)C2)nc(N(C)CC(C)(C)C)n1` (stereo partly specified), the concentration for half-maximal inhibition (IC50) is < 1000 nM.
To `CCONC(=O)c1ccc(C)c(Nc2nc(N(C)CC(C)(C)C)nc(N3CCCN(C)CC3)n2)c1` belongs < 1000 nM; to `CN(CC1CCC2CC1C2(C)C)c1nc(Nc2ccc3ncsc3c2)nc(N2CCNCC2)n1` (stereo unspecified), < 10000 nM; to `CNCCN(C)c1nc(NCC(C)c2ccccc2)nc(Nc2ccc3nc(C)sc3c2)n1` (stereo unspecified), < 10000 nM.
Then `CC1(C)C2CCC(CNc3nc(Nc4ccc5[nH]nnc5c4)nc(N4CCNCC4)n3)C1C2` (stereo unspecified), with < 10000 nM; and `Cc1ccc(C(N)=O)cc1Nc1nc(NCC2CCC3CC2C3(C)C)nc(NC2CCNC2)n1` (stereo unspecified), with < 1000 nM.
To `Cc1ccc(C(N)=O)cc1Nc1nc(N[C@H]2CCCC[C@H]2NC(=O)CC(C)C)nc(N(C)CC(C)C)n1` belongs < 1000 nM; to `Cc1ccc(Nc2nc(NC[C@@H]3CC[C@H]4C[C@@H]3C4(C)C)nc(N3CCCNCC3)n2)cc1C(N)=O`, < 10000 nM.
In the case of `CC(Cc1ccccc1)Nc1nc(Nc2ccc3ncsc3c2)nc(N2CCNCC2)n1` (stereo unspecified), the IC50 was < 10000 nM.
Then `Cc1ccccc1NC(=S)N1CCN(c2nc(NCC(C)c3ccccc3)nc(Nc3ccc4ncsc4c3)n2)CC1` (stereo unspecified), with < 10000 nM.
To `CCCCNc1nc(Nc2cc(C(N)=O)ccc2C)nc(N[C@H]2CCNC2)n1` belongs < 1000 nM; to `Cc1ccc(C(=O)Nc2cccc(F)c2)cc1Nc1nc(N[C@H]2CCNC2)nc(N(C)CC(C)(C)C)n1`, < 1000 nM.
In the case of `CCCC1(C)CCN(c2nc(Nc3cc(C(=O)NC)ccc3C)nc(N[C@@H]3CCNC3)n2)C1` (stereo partly specified), the half-maximal inhibitory concentration (IC50) is < 1000 nM.
Then `CC(C)(Cc1ccccc1)Nc1nc(Nc2ccc3ncsc3c2)nc(N2CCNCC2)n1`, with < 10000 nM.
To `COC1CCCC(C(=O)N(C)CCCN(C)c2nc(NCC(C)c3ccccc3)nc(Nc3ccc4ncsc4c3)n2)C1` (stereo unspecified) belongs < 10000 nM; to `Cc1ccc(C(N)=O)cc1Nc1nc(N[C@H]2CCCC[C@H]2N)nc(N(C)CC(C)C)n1`, < 1000 nM; to `CONC(=O)c1ccc(C)c(Nc2nc(NCc3ccc(Cl)c(Cl)c3)nc(N(C)CC(C)(C)C)n2)c1`, < 1000 nM.
To `Cc1ccc(CN2CC[C@H](Nc3nc(Nc4cc(C(N)=O)ccc4C)nc(N(C)CC(C)C)n3)C2)c(C)c1` belongs < 1000 nM.
For `c1ccc2c(c1)CCN(c1nc(Nc3ccc4ncsc4c3)nc(N3CCNCC3)n1)C2`, the half-maximal inhibitory concentration (IC50) is < 10000 nM.
As to `Cc1ccc(C(N)=O)cc1Nc1nc(N[C@H]2CCN(C(C)C)C2)nc(N(C)CC(C)C)n1`, the IC50 is < 1000 nM.
To `Cc1ccc(C(N)=O)cc1Nc1nc(CC2CCCC2)nc(Nc2ccncc2)n1` belongs < 1000 nM.
Then `Cc1ccc(C(N)=O)cc1Nc1nc(NC(C)C2CCCCC2)nc(N2CCNCC2)n1` (stereo unspecified), with < 1000 nM.
In the case of `Cc1ccc(C(N)=O)cc1Nc1nc(N[C@H]2CCN(C)C2)nc(N(C)CC(C)(C)C)n1`, the IC50 is < 1000 nM.
To `CC1(C)C2CCC(CNc3cc(Nc4ccc5ncsc5c4)nc(N4CCNCC4)n3)C1C2` (stereo unspecified) belongs < 10000 nM; to `CC(Cc1ccccc1)Nc1nc(Nc2ccc3ncsc3c2)nc(N(C)C)n1` (stereo unspecified), < 10000 nM; to `Cc1ccc(-c2n[nH]c(=O)[nH]2)cc1Nc1nc(N[C@@H]2CCNC2)nc(N(C)CC(C)(C)C)n1`, < 1000 nM.
Then `CCONC(=O)c1ccc(C)c(Nc2nc(NC)nc(N(C)CC(C)(C)C)n2)c1`, with < 1000 nM; and `Cc1ccc(C(N)=O)cc1Nc1nc(N[C@H]2CCN(Cc3cccc(F)c3)C2)nc(N(C)CC(C)C)n1`, with < 1000 nM.
To `O=C(O)CCC(=O)N1CCN(c2nc(Nc3ccc4ncsc4c3)nc(NC3CCc4ccccc43)n2)CC1` (stereo unspecified) belongs < 10000 nM; to `Cc1ccc(C(N)=O)cc1Nc1nc(N[C@H]2CCN(C(C)C#N)C2)nc(N(C)CC(C)C)n1` (stereo partly specified), < 1000 nM; to `Cc1ccc(C(N)=O)cc1Nc1nc(N[C@H]2CCNC2)nc(N(C)CC(C)C)n1`, < 1000 nM.
In the case of `Cc1ccc2c(c1Nc1nc(N[C@H]3CCNC3)nc(N(C)CC(C)(C)C)n1)CNC2=O`, the IC50 is < 1000 nM.
Regarding `Cc1ccc(C(N)=O)cc1Nc1nc(NCCc2ccc(Cl)cc2)nc(N[C@H]2CCNC2)n1`, the IC50 was < 1000 nM.
To `Cc1ccc(C(N)=O)cc1Nc1nc(NCC23CC4CC(CC(C4)C2)C3)nc(NC2CCNC2)n1` (stereo unspecified) belongs < 1000 nM.
To `CNC(=O)c1ccc(C)c(Nc2nc(NC3CNC3)nc(N(C)CC(C)(C)C)n2)c1` belongs < 1000 nM; to `Cc1ccc(S(N)(=O)=O)cc1Nc1nc(N[C@H]2CCNC2)nc(N(C)CC(C)(C)C)n1`, < 1000 nM.
Then `Cc1ccc(C(N)=O)cc1Nc1nc(NCC2CCCC2)nc(N[C@H]2CCNC2)n1`, with < 1000 nM.
Consider `Cc1ccc(C(N)=O)cc1Nc1nc(N[C@H]2CCN(Cc3ccccn3)C2)nc(N(C)CC(C)C)n1`, for which the IC50 was < 1000 nM.
As for `CC(CNc1nc(N)nc(Nc2ccc3ncsc3c2)n1)c1ccccc1` (stereo unspecified), the IC50 was < 10000 nM.
To `CONC(=O)c1ccc(C)c(Oc2nc(N(C)CC(C)(C)C)nc(N3CCCN(C)CC3)n2)c1` belongs < 30000 nM; to `CC(CNc1cc(N2CCOCC2)nc(Nc2ccc3ncccc3c2)n1)c1ccccc1` (stereo unspecified), < 10000 nM.
To `CCCNC(=O)c1ccc(C)c(Nc2nc(O[C@H]3CCNC3)nc(N(C)CC(C)(C)C)n2)c1` belongs < 1000 nM; to `Cc1ccc(C(N)=O)cc1Nc1nc(N[C@H]2CCN(C(C)c3cccnc3)C2)nc(N(C)CC(C)C)n1` (stereo partly specified), < 1000 nM; to `C[C@H](CNc1nc(Nc2ccc3ncsc3c2)nc(N(C)CCN(C)C(=O)CCC(=O)O)n1)c1ccccc1`, < 10000 nM.
To `CNCCN(C)c1nc(NCc2ccc(Cl)c(Cl)c2)nc(Nc2ccc3ncsc3c2)n1` belongs < 10000 nM.
Consider `Cc1ccc(C(=O)Nc2ccccn2)cc1Nc1nc(N[C@H]2CCNC2)nc(N(C)CC(C)(C)C)n1`, for which the IC50 is < 1000 nM.
Then `CN(CC1CCC2CC1C2(C)C)c1nc(Nc2ccc3ncsc3c2)nc(N2CCN(S(C)(=O)=O)CC2)n1` (stereo unspecified), with < 10000 nM; and `CNC(=O)c1ccc(C)c(Nc2nc(NCC(C)(C)C)nc(N[C@H]3CCNC3)n2)c1`, with < 1000 nM; and `Cc1ccc(C(N)=O)cc1Nc1nc(N[C@H]2CCN(C(C#N)c3ccccc3)C2)nc(N(C)CC(C)C)n1` (stereo partly specified), with < 1000 nM.
To `CC1(C)C2CCC(CNc3nc(Nc4ccc5scnc5c4)nc(N4CCNCC4)n3)C1C2` (stereo unspecified) belongs < 10000 nM.
To `Cc1ccc(C(N)=O)cc1Nc1nc(N[C@H]2CCNC2)nc(N(C)C[C@@H]2CC[C@H]3C[C@H]2C3(C)C)n1` belongs < 1000 nM; to `Cc1ccc(C(N)=O)cc1N(C)c1nc(NC2CCCC2)nc(N[C@H]2CCNC2)n1`, < 1000 nM.
